In general, logP refers to a log measure of how a compound divides between an organic and an aqueous phase. Low readings indicate lower lipophilicity, high ones higher lipophilicity.

Peptide text beside a SMILES is read from it. * marks the point of attachment. NHtBu = CC(C)(C)N*

The compound `O=C(O)CCCOc1ccc(Cl)cc1Cl` showed a logP of 3.53. Compound `NS(=O)(=O)c1ccc(C(=O)O)cc1` had a logP of 0.5. On to `O=Nc1c(Br)cc2ccccc2c1O`, for which the logP turned out to be 2.93.

Turning to `CC(C)CO`, the logP came to 0.76.

For `CCCCOc1cccnn1`, the logP came out at 1.8. The value for `FC(F)(F)c1nc2cc(Cl)c(Cl)cc2[nH]1` was 3.49; that for `NNC(=O)c1ccccc1Br` was 0.26.

Compound `CC(=O)NC(C)C(=O)NCC(=O)NC(C)C(=O)NC(C)(C)C` (stereo not drawn) (Ac-Ala-Gly-Ala-NHtBu; configuration not given here) showed a logP of -0.6. The figure for `N#Cc1ccc(OCC(=O)O)cc1` is 0.93; for `O=[N+]([O-])c1cccc(CO)c1` it is 1.21; for `O=C(NC(CO)C(O)c1ccc([N+](=O)[O-])cc1)C(F)F` (stereo unspecified) it is 0.42.

With `CN(C)C(=O)OCc1ccc(OC(=O)N(C)C)cc1`, the logP turned out to be 1.59. In turn, `Oc1cc(O)cc(O)c1` displayed a logP of 0.16.

Turning to `CCC(C)NC(=O)C=C(SC)c1ccccc1` (stereo unspecified), the logP was 3.03.

`O=C(NP(=O)(N1CC1)N1CC1)c1cccc(I)c1` displayed a logP of 1.91. The figure for `O=c1nn[nH]c2ccccc12` is 0.83; for `Clc1cc(Cl)c(Cl)c(Cl)c1Cl` it is 5.17; for `O=C(O)c1c(Cl)cccc1Cl` it is 2.23. The value for `NNC(=O)c1cccc(O)c1` was -0.08; that for `CCCCCCOC(=O)n1cnc(C)c1CSCCNC(=NC#N)NC` was 3.1; that for `c1ccc2occc2c1` was 2.67. With `Clc1ccc(Cl)c(-c2c(Cl)ccc(Cl)c2Cl)c1`, the logP is 6.55. The value for `CCC(NC(C)=O)C(=O)OC` (stereo unspecified) was -0.17. The value for `CC(=O)Nc1cccc2cccnc12` was 1.91; that for `COP(=S)(OC)Oc1cc(Cl)c(Br)cc1Cl` was 5.21. `CCCNCC(C)C` came in with a logP of 2.07. The figure for `CC(C)Oc1cc(-n2nc(C(C)(C)C)oc2=O)c(Cl)cc1Cl` is 4.8; for `CCCCCCCCO` it is 3; for `COc1ccc(C(C)=O)cc1` it is 1.74. The figure for `N#Cc1ccccc1O` is 1.61. Compound `NC(=O)c1ccc(C(O)C(CO)NC(=O)C(Cl)Cl)cc1` (stereo unspecified) came in with a logP of -0.48.

The compound `CC[C@H](C)[C@H](NC(=O)[C@H](CC(C)C)NC(C)=O)C(N)=O` (Ac-Leu-Ile-NH2) returned a logP of 0.68. The value for `OCCN1CCN(CCCC2c3ccc(F)cc3Sc3ccc(C(F)(F)F)cc32)CC1` (stereo unspecified) was 4.47; that for `CC(=O)OC1CC(OC2C(O)CC(OC3C(C)OC(OC4CCC5(C)C(CCC6C5CC(O)C5(C)C(C7=CC(=O)OC7)CCC65O)C4)CC3OC(C)=O)OC2C)OC(C)C1O` (stereo unspecified) was 2.45.

Turning to `NC(C(=O)O)c1cccs1` (stereo unspecified), the logP is -2.05. `CCC12CC3CC(CC(N)(C3)C1)C2` came in with a logP of 3.4. The figure for `Oc1cc(Cl)cc(Cl)c1Cl` is 3.84; for `CCCC=O` it is 0.88; for `O=[N+]([O-])C=Cc1ccc(Cl)cc1` it is 2.44. The value for `CC(C)(C)C(=O)C(C)(C)C` was 3. `CC(=O)N[C@@H](CC(C)C)C(=O)N[C@@H](CO)C(=O)N[C@@H](Cc1ccccc1)C(N)=O` (Ac-Leu-Ser-Phe-NH2) gave a logP of 0.23. The figure for `CN1CCN(Cc2ccc(C(=O)OCn3ncc4c(=O)[nH]cnc43)cc2)CC1` is 1.47. With `O=C(O)c1ccc2ccccc2c1`, the logP came to 3.28.

`COC(=O)c1cnc([N+](=O)[O-])n1C` returned a logP of 0.51. The compound `CC(=O)N[C@H](C(=O)N[C@H](C(N)=O)C(C)C)[C@@H](C)O` (Ac-Thr-Val-NH2) came in with a logP of -1.25. Compound `CC(=O)NCCCOc1cccc(CN2CCCCC2)c1` yielded a logP of 2.15. The compound `Clc1ccc(C(c2ccc(Cl)cc2)C(Cl)(Cl)Cl)cc1` gave a logP of 6.91.

As to `COC1=C(OC)C(=O)C(C)=C(C)C1=O`, the logP was found to be 1.26. The value for `O=Cc1cccc(Oc2ccccc2)c1` was 3.38; that for `Nc1ncc(Cc2ccccc2)c(N)n1` was 1.58; that for `O=C(O)CSc1ccccc1` was 1.88. The value for `c1ccnnc1` was -0.72. With `c1ccc2c(N3CCCCC3)ncnc2c1`, the logP was determined as 2.92. `CC(=O)N[C@@H](CC(C)C)C(=O)N[C@@H](CC(N)=O)C(N)=O` yielded a logP of -1.3. The figure for `CCOP(=S)(OCC)Oc1ccc(SC)cc1` is 4.16. The figure for `O=C(O)c1cccc(Cl)c1` is 2.68. The compound `CCCOC(=O)c1ccc(N)cc1` yielded a logP of 2.43. With `O=C(O)c1cc2ccccc2o1`, the logP came to 2.41. Compound `Brc1ccoc1` came in with a logP of 2.18. The figure for `O=[N+]([O-])c1cccc(SSc2cccc([N+](=O)[O-])c2)c1` is 4.06. Take `NC(Cc1ccc(F)cc1)C(=O)O` (racemic): the logP is -1.89. The figure for `COc1cccc(S(I)=C(N(C)C)N(C)C)c1` (stereo unspecified) is -0.5; for `CN(C)C(N(C)C)=S(I)c1c(Cl)cccc1Cl` (stereo unspecified) it is 0. The value for `COC(=O)C(=Cc1ccccc1)C(=O)OC` was 2.24; that for `Cc1ccnc2ccccc12` was 2.61. In the case of `Nc1ccc2cc3ccccc3nc2c1`, the logP is 2.77. In the case of `C#C[C@]1(O)CC[C@H]2[C@@H]3CCC4=CC(=O)CC[C@@H]4[C@H]3CC[C@@]21C`, the logP amounted to 2.97. Compound `Fc1ccccc1Cn1cc[nH]c1=S` displayed a logP of 1.77. The figure for `c1nnn[nH]1` is -0.6; for `CC1=CC(=O)c2ccccc2C1=O` it is 2.2.

On to `CCCCc1ccc(S(N)(=O)=O)cc1`, for which the logP was found to be 2.45. `COP(=S)(OC)Oc1ccc([N+](=O)[O-])c(C)c1`: the logP was 3.3.

As to `CC(C)N(Cc1cccnc1)C(C)C`, the logP came out at 2.27. The figure for `O=C(O)CN1CCN(C(=O)Cn2c(=O)sc3ccc(Cl)cc32)CC1` is -0.71. As for `O=NN(CCCl)C(=O)NC1CCCCC1Cl` (stereo unspecified), the logP was 2.73. In the case of `OCCCCCc1ccncc1`, the logP is 1.39. The figure for `NS(=O)(=O)Nc1ccccc1` is 0.4; for `CCCOc1ccc(O)cc1` it is 2.33; for `CCCCCCNC(=O)c1ccc(S(N)(=O)=O)cc1` it is 2.05. `O=C(O)COc1cccc(I)c1` came in with a logP of 2.44. The figure for `O=C(O)C=Cc1ccc([N+](=O)[O-])cc1` is 2.12; for `O=S1(=O)NC(C(F)(F)F)=Nc2cc(Cl)ccc21` it is 1.65; for `Nc1ccc(C(=O)Oc2cccc(F)c2)c(O)c1` it is 3.42. The value for `O=[N+]([O-])c1cc2ccccc2[n+]([O-])c1` was 0.56. In turn, `N#Cc1ccc(NC=O)cc1` yielded a logP of 1.08. The value for `CN(C)c1ccc2cccnc2c1` was 2.71; that for `CS(=O)(=O)c1ccc(C(O)C(CO)NC(=O)C(Cl)Cl)cc1` (stereo unspecified) was -0.27. `Nc1cccc(N)c1` displayed a logP of -0.33. As to `CCCCSC1=CC(=O)c2ccccc2C1=O`, the logP came out at 3.29.

For the compound `O=c1cc[nH]c2ccccc12`, the logP came to 0.58. The figure for `CC(=O)Oc1cccc2cccnc12` is 2.03; for `c1ccc(Sc2ccccc2)cc1` it is 4.45. As to `Cc1cc(Br)cnc1NS(=O)(=O)c1ccc(N)cc1`, the log partition coefficient (logP) stood at 2.05. For `CCN(CC)C(C)CN1c2ccccc2Sc2ccccc21` (stereo unspecified), the logP came to 4.77.

As for `CCN(CC)CCN`, the logP is 0.21.

With `O=NN(CCCl)C(=O)NC1CCC(C(=O)O)CC1` (stereo unspecified), the logP is 1.68. The value for `C=CCN1CC[C@]23CCCC[C@H]2[C@H]1Cc1ccc(O)cc13` was 3.48. The value for `CF` was 0.51; that for `COC(=O)COc1ccccc1` was 1.41; that for `CC1CC2OC(=O)C3(C)C2C(OC3(C)O)C2(C)C(=O)C=CC12` (stereo unspecified) was 0.3. The compound `O=C(O)c1ccc2oc3ccccc3c(=O)c2c1` had a logP of 3.12. In the case of `COc1ccc(CCN)cc1OC`, the logP was determined as 0.77. As for `COC(=O)c1cc(O)c(O)c(O)c1`, the logP was determined as 0.86. The compound `COc1cc(Cl)c(Nc2ccccc2CC(=O)O)c(Cl)c1` displayed a logP of 4.44. The value for `CCCc1cccc(OCC(=O)O)c1` was 2.71; that for `O=[N+]([O-])C=Cc1ccccc1` was 2.11; that for `CCOP(=O)(OCC)SCn1nnc2ccccc2c1=O` was 1.63.

Regarding `CC(Cl)(Cl)C(=O)O`, the logP worked out at 0.78.

The compound `OCCc1ccncc1` displayed a logP of 0.1. In turn, `O=C(O)c1ccc(O)cc1` showed a logP of 1.58. With `Nc1ccccc1SSc1ccccc1N`, the logP amounted to 3.05. `FC(F)Oc1ccccc1` returned a logP of 2.44. The value for `S=c1[nH]c2ccccc2[nH]1` was 1.66; that for `CC12CC(O)C3C(CCC4(O)CC(O)CC(O)C34CO)C1(O)CCC2C1=CC(=O)OC1` (stereo unspecified) was -0.02. The compound `CCCCCNc1nc(NC(C)C)nc(SC(F)F)n1` registered a logP of 5.2. The figure for `CNC(=O)Oc1ccc(OC)cc1` is 1.2. The value for `OC(Cn1ccnc1)c1ccc(CCc2ccccc2)cc1` (stereo unspecified) was 3.4; that for `O=C(O)CC(O)C(=O)O` (stereo unspecified) was -1.26. The figure for `NC(=O)Nc1cccc(Br)c1` is 2.08; for `O=C(O)c1ccncc1` it is 0.32; for `Nc1cnc2ccccc2c1` it is 1.63. The compound `CN(C)C(N(C)C)=S(I)c1ccc(I)cc1` (stereo unspecified) came in with a logP of 0.28. The value for `c1cncnc1` was -0.4; that for `CCCC(N)C(=O)O` (stereo unspecified) was -2.11. The compound `Cc1c(Cl)ccc(OC(C)C(O)=Nc2ccccc2)c1Cl` (stereo unspecified) returned a logP of 4.8. The value for `NC(=O)Nc1ccc(Oc2ccccc2)cc1` was 2.8.

Take `CCC1(C2=CCCCC2)C(=O)NC(=O)N(C)C1=O` (stereo unspecified): the logP worked out at 2.25.

On to `CN(C)c1nc2c3cccnc3ccc2n1C`, for which the logP amounted to 2.28. The value for `O=C(c1ccccc1)c1cccc(NS(=O)(=O)C(F)F)c1` was 2.86; that for `CCOC(=O)Nc1ccccc1` was 2.3; that for `CCCCOCN(C(=O)CCl)c1c(CC)cccc1CC` was 4.5.
